Patent publication EP4778922A1, “BICYCLIC COMPOUND, AND PREPARATION METHOD THEREFOR AND PHARMACEUTICAL USE THEREOF” (Shanghai Jeyou Pharmaceutical Co., Ltd., priority 2023, dated 2025)
Read-outs that look alike come from different tables or passages of the source.

Experiments:
LNCaP cells = test: Cell proliferation inhibition assay in LNCaP cells (0.2 nM DHT, CellTiter-Glo, 7 days); type: cell-based, human; conditions: Homo sapiens, LNCaP, 168 h
Outline: (§1)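 22RV1 cells received compound alone; LNCaP cells were stimulated with 0.2 nM DHT added 1 h after compound. Seeding was 3000 cells/well.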

[1] = Mouse pharmacokinetic test; type: in vivo, ICR mice; conditions: plasma; for Tmax: read-out: Tmax; for bioavailability: PO-30mpk vs IV-0.5mpk
Outline: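 Male naive ICR mice (25–30 g, n=3 per route) received a single intravenous or oral dose, with feeding resumed 4 h post-dose. Blood was centrifuged at 4°C, and plasma was stored at -80°C until analysis.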

CYP1A2 = biological target: T1, CYP1A2 (Homo sapiens, UniProt P05177); test: CYP inhibition assay in human liver microsomes; type: in vitro ADME
T1 construct: co-incubated with human liver microsomes; from tissue; host or cells: human liver microsomes
T1 sequence (P05177 1-516): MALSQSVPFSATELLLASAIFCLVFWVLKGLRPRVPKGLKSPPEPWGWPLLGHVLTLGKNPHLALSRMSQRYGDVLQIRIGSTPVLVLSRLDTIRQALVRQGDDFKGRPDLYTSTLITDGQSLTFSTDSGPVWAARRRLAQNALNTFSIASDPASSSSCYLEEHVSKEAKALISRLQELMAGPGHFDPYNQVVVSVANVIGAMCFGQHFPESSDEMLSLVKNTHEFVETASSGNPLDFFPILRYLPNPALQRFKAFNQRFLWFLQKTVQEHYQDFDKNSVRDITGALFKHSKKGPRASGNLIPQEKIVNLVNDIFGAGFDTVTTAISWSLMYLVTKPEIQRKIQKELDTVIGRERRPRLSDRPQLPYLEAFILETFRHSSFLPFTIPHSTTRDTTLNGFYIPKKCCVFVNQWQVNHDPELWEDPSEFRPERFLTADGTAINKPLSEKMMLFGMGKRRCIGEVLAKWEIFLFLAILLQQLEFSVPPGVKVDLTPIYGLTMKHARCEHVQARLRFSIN
Protocol: (§2) Test Example 3: CYP Inhibition Assay
(§3) An in vitro assay system was used to evaluate the effects of the compounds on the activities of several human liver microsomal cytochrome P450 (CYP) isozymes (CYP1A2, CYP2C9, CYP2D6, CYP3A4 (testosterone/midazolam), CYP2C19, and CYP2C8). Specific probe substrates for CYP450 isozymes were co-incubated with human liver microsomes and the compound at various concentrations (0, 0.0300, 0.100, 0.300, 1.00, 3.00, 10.0 µM). The reaction was initiated by adding the coenzyme NADPH. After the reaction was completed, the samples were processed, and the metabolites generated from the probe substrates were detected by liquid chromatography-tandem mass spectrometry (LC-MS/MS). Based on the resulting dose-response curves, the IC50 values of the test compounds for the probe substrate reactions catalyzed by each CYP isozyme were calculated.

CYP2C19 = biological target: T2, CYP2C19 (Homo sapiens, UniProt P33261); test: CYP inhibition assay in human liver microsomes; type: in vitro ADME
T2 construct: co-incubated with human liver microsomes; from tissue; host or cells: human liver microsomes
Protocol: as §2, §3

CYP2C8 = biological target: T3, CYP2C8 (Homo sapiens, UniProt P10632); test: CYP inhibition assay in human liver microsomes; type: in vitro ADME
T3 construct: co-incubated with human liver microsomes; from tissue; host or cells: human liver microsomes
T3 sequence (P10632 1-490): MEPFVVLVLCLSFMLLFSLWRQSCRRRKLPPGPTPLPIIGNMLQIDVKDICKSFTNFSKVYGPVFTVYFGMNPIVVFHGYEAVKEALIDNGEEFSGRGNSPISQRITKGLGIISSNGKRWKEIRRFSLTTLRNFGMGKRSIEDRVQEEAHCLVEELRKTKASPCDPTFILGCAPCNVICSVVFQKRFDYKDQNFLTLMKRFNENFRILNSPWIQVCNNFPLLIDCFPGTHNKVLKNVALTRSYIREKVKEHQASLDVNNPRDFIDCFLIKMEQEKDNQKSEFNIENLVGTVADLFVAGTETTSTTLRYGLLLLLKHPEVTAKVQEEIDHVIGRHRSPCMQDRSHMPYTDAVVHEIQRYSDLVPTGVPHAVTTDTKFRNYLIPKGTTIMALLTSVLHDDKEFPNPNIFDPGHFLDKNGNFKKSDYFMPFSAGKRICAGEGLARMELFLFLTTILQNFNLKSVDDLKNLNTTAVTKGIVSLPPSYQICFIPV
Protocol: as §2, §3

CYP2C9 = biological target: T4, CYP2C9 (Homo sapiens, UniProt P11712); test: CYP inhibition assay in human liver microsomes; type: in vitro ADME
T4 construct: co-incubated with human liver microsomes; from tissue; host or cells: human liver microsomes
Protocol: as §2, §3

CYP2D6 = biological target: T5, CYP2D6 (Homo sapiens, UniProt P10635); test: CYP inhibition assay in human liver microsomes; type: in vitro ADME
T5 construct: co-incubated with human liver microsomes; from tissue; host or cells: human liver microsomes
Protocol: as §2, §3

[2] = biological target: T6, CYP3A4 (testosterone/midazolam) (Homo sapiens, UniProt P08684); test: CYP inhibition assay in human liver microsomes; type: in vitro ADME
T6 construct: co-incubated with human liver microsomes; from tissue; host or cells: human liver microsomes
Protocol: as §2, §3

22RV1 cells = test: Cell proliferation inhibition assay in 22RV1 cells (CellTiter-Glo, 7 days); type: cell-based, human; conditions: Homo sapiens, 22Rv1, 168 h
Outline: as §1

[3] = human liver microsomes, NADPH, read-out: CYPs 1A2 (IC50)
[4] = human liver microsomes, NADPH, read-out: CYPs 2C19 (IC50)
[5] = human liver microsomes, NADPH, read-out: CYPs 2C8 (IC50)
[6] = human liver microsomes, NADPH, read-out: CYPs 2C9 (IC50)
[7] = human liver microsomes, NADPH, read-out: CYPs 2D6 (IC50)
[8] = probe substrate midazolam, read-out: CYPs 3A4 (Midazolam) (IC50)
[9] = probe substrate testosterone, read-out: CYPs 3A4 (Testosterone) (IC50)

T5 sequence (P10635 whole entry): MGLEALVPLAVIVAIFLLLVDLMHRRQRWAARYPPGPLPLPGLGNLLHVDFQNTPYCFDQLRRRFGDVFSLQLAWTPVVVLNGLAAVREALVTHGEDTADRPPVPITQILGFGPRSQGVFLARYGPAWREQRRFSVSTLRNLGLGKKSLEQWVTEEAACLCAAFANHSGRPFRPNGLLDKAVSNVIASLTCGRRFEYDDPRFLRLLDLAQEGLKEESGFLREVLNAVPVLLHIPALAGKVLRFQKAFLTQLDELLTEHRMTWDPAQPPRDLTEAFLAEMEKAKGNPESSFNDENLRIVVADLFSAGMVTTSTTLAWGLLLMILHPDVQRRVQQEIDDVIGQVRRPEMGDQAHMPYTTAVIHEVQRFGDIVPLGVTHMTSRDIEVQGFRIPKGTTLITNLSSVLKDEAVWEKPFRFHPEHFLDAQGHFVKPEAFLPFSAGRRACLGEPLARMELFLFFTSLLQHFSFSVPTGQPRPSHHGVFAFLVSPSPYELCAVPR
T6 sequence (P08684 whole entry): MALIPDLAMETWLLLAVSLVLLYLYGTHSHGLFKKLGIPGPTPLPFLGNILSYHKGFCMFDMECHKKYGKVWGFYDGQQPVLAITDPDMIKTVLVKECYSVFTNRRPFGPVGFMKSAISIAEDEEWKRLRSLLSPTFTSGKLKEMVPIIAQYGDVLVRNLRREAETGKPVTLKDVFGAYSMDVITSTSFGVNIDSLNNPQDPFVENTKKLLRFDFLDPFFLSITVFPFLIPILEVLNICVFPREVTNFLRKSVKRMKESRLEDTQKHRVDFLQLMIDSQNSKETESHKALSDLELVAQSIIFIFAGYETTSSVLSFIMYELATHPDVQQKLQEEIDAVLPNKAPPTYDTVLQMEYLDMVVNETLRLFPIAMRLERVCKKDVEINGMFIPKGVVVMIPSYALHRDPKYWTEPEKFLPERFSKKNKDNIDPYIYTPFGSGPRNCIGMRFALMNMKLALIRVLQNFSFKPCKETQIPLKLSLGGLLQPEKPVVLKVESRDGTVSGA
T4 sequence (P11712 whole entry): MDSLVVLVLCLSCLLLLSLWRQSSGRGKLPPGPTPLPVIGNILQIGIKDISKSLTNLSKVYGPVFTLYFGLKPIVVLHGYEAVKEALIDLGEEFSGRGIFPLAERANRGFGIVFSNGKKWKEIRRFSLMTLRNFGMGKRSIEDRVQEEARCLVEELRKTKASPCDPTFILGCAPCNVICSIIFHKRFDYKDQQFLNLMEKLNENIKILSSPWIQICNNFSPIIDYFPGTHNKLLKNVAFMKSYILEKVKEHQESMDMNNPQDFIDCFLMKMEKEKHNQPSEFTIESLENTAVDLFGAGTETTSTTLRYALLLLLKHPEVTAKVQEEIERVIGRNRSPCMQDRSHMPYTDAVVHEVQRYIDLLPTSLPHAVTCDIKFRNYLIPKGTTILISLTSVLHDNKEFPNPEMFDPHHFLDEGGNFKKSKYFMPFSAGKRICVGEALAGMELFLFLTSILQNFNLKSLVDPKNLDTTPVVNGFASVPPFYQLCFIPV
T2 sequence (P33261 whole entry): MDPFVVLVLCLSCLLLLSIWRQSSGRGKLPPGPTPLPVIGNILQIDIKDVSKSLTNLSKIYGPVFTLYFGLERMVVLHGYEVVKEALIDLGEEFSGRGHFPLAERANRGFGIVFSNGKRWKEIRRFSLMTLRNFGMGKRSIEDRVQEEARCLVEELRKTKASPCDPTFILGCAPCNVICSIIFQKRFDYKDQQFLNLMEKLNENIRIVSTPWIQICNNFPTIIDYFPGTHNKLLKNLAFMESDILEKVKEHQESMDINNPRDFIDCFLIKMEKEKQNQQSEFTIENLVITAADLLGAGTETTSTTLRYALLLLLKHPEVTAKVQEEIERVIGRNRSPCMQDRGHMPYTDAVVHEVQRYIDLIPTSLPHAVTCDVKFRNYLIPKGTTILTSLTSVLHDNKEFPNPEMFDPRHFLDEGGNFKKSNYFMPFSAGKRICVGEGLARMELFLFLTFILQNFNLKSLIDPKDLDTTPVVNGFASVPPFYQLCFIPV

CC(C)(c1ccc(-c2cnc(OCc3ccnc(N4CC([S@](C)(=N)=O)C4)n3)cn2)cc1)c1cc(Cl)c(OCCCl)c(C#N)c1 (single isomer, unassigned) [Compound 323A]
IC50 (LNCaP cells): 0.58 µM | AUC(0-inf) ([1]; po, 30 mg/kg, PO-30mpk): 1390 µg·h/mL | Cmax ([1]; po, 30 mg/kg, PO-30mpk): 131000 ng/mL | half-life ([1]; po, 30 mg/kg, PO-30mpk): 5.94 h | Tmax ([1]; po, 30 mg/kg, PO-30mpk): 3.3 h | IC50 (CYP1A2; [3]): > 10 µM | IC50 (CYP2C19; [4]): > 10 µM | IC50 (CYP2C8; [5]): > 10 µM | IC50 (CYP2C9; [6]): 8 µM | IC50 (CYP2D6; [7]): > 10 µM | IC50 [2, 8]: > 10 µM | IC50 [2, 9]: > 10 µM

CC(C)(c1ccc(-c2cnc(OCc3ccnc(N4CC([S@@](C)(=N)=O)C4)n3)cn2)cc1)c1cc(Cl)c(OCCCl)c(C#N)c1 (single isomer, unassigned) [Compound 323B]
IC50 (LNCaP cells): 0.58 µM | AUC(0-inf) ([1]; po, 30 mg/kg, PO-30mpk): 1180 µg·h/mL | Cmax ([1]; po, 30 mg/kg, PO-30mpk): 108000 ng/mL | half-life ([1]; po, 30 mg/kg, PO-30mpk): 6.05 h | Tmax ([1]; po, 30 mg/kg, PO-30mpk): 2.7 h | IC50 (CYP1A2; [3]): > 10 µM | IC50 (CYP2C19; [4]): > 10 µM | IC50 (CYP2C8; [5]): > 10 µM | IC50 (CYP2C9; [6]): 2.9 µM | IC50 (CYP2D6; [7]): > 10 µM | IC50 [2, 8]: > 10 µM | IC50 [2, 9]: > 10 µM

CC(C)(c1ccc(-c2ccc(OCc3ccnc(P(C)(C)=O)n3)cc2)cc1)c1cc(Cl)c(OCCCl)c(C#N)c1 [Compound 2]
IC50 (22RV1 cells): 0.77 µM | C0 ([1]; 0.5 mg/kg, IV-0.5mpk): 1200 ng/mL | clearance ([1]; 0.5 mg/kg, IV-0.5mpk): 1.09 mL/min/kg | bioavailability ([1]; 30 mg/kg): 135% | AUC(0-inf) ([1]; iv, 0.5 mg/kg, IV-0.5mpk): 7.65 µg·h/mL | half-life ([1]; iv, 0.5 mg/kg, IV-0.5mpk): 8.9 h | AUC(0-inf) ([1]; po, 30 mg/kg, PO-30mpk): 619 µg·h/mL | Cmax ([1]; po, 30 mg/kg, PO-30mpk): 31700 ng/mL | half-life ([1]; po, 30 mg/kg, PO-30mpk): 12 h | Tmax ([1]; po, 30 mg/kg, PO-30mpk): 3.3 h | IC50 (CYP1A2; [3]): > 10 µM | IC50 (CYP2C19; [4]): > 10 µM | IC50 (CYP2C9; [6]): 6.9 µM | IC50 (CYP2D6; [7]): > 10 µM | IC50 [2, 8]: > 10 µM | IC50 [2, 9]: > 10 µM

CC(C)(c1ccc(-c2ccc3oc(-c4ccnc(P(C)(C)=O)n4)c(N)c3c2)cc1)c1cc(Cl)c(OCCCl)c(C#N)c1 [Compound 56]
IC50 (22RV1 cells): 0.27 µM | C0 ([1]; 0.5 mg/kg, IV-0.5mpk): 6190 ng/mL | clearance ([1]; 0.5 mg/kg, IV-0.5mpk): 1.02 mL/min/kg | bioavailability ([1]; 30 mg/kg): 55.6% | AUC(0-inf) ([1]; iv, 0.5 mg/kg, IV-0.5mpk): 8.3 µg·h/mL | half-life ([1]; iv, 0.5 mg/kg, IV-0.5mpk): 6.1 h | AUC(0-inf) ([1]; po, 30 mg/kg, PO-30mpk): 277 µg·h/mL | Cmax ([1]; po, 30 mg/kg, PO-30mpk): 29600 ng/mL | half-life ([1]; po, 30 mg/kg, PO-30mpk): 8.57 h | Tmax ([1]; po, 30 mg/kg, PO-30mpk): 3.33 h | IC50 (CYP1A2): > 10 µM | IC50 (CYP2C19): > 10 µM | IC50 (CYP2C8): > 10 µM | IC50 (CYP2C9): > 10 µM | IC50 (CYP2D6): > 10 µM | IC50 ([2]; CYPs 3A4 (Midazolam) (IC50), probe substrate midazolam): > 10 µM | IC50 ([2]; CYPs 3A4 (Testosterone) (IC50), probe substrate testosterone): > 10 µM

CC(C)(c1ccc(-c2cnc(OCc3ccnc(N4CC(S(C)(=O)=O)C4)n3)cn2)cc1)c1cc(Cl)c(OCCCl)c(C#N)c1 [Compound 262]
IC50 (22RV1 cells): 0.14 µM | IC50 (LNCaP cells): 0.34 µM | C0 ([1]; 0.5 mg/kg, IV-0.5mpk): 1790 ng/mL | clearance ([1]; 0.5 mg/kg, IV-0.5mpk): 0.55 mL/min/kg | bioavailability ([1]; 30 mg/kg): 71.2% | AUC(0-inf) ([1]; iv, 0.5 mg/kg, IV-0.5mpk): 15.2 µg·h/mL | half-life ([1]; iv, 0.5 mg/kg, IV-0.5mpk): 10.8 h | AUC(0-inf) ([1]; po, 30 mg/kg, PO-30mpk): 648 µg·h/mL | Cmax ([1]; po, 30 mg/kg, PO-30mpk): 74700 ng/mL | half-life ([1]; po, 30 mg/kg, PO-30mpk): 5.2 h | Tmax ([1]; po, 30 mg/kg, PO-30mpk): 2 h | IC50 (CYP1A2; [3]): > 10 µM | IC50 (CYP2C19; [4]): > 10 µM | IC50 (CYP2C8; [5]): > 10 µM | IC50 (CYP2C9; [6]): 8.3 µM | IC50 (CYP2D6; [7]): > 10 µM | IC50 [2, 8]: > 10 µM | IC50 [2, 9]: > 10 µM

CC(C)(c1ccc(-c2cnc(OCc3ccnc(N4CC5(CCS5(=O)=O)C4)n3)cn2)cc1)c1cc(Cl)c(OCCCl)c(C#N)c1 [Compound 376]
IC50 (22RV1 cells): 0.27 µM | IC50 (LNCaP cells): 0.1 µM | AUC(0-inf) ([1]; po, 30 mg/kg, PO-30mpk): 2300 µg·h/mL | Cmax ([1]; po, 30 mg/kg, PO-30mpk): 131000 ng/mL | half-life ([1]; po, 30 mg/kg, PO-30mpk): 23 h | Tmax ([1]; po, 30 mg/kg, PO-30mpk): 4 h | IC50 (CYP2C19; [4]): > 10 µM | IC50 (CYP2C8; [5]): > 10 µM | IC50 (CYP2C9; [6]): > 10 µM | IC50 [2, 8]: > 10 µM | IC50 [2, 9]: > 10 µM
